# Measurements reported in ChEMBL document CHEMBL4680168, “The development of a novel transforming growth factor-β (TGF-β) inhibitor that disrupts ligand-receptor interactions” (Eur J Med Chem, 2020).
# pIC50: −log10 of the molar value. Calls of active or inactive are those of the source. The calls are words filed in the database; no cut-off is given here.
# Assays:
# [1] = Inhibition of TGFbeta signalling pathway in MLEC preincubated for 30 mins followed by TGF-beta1 addition and measured after 18 hrs by Steady-Glo luciferase assay; set-up: species or system Neovison vison; conditions: for pIC50: read-out: IC50
# [2] = Cytotoxicity against MLEC assessed as reduction in cell viability at 50 uM by MTT assay; conditions: neovison vison
# A549 [3] = test: Inhibition of TGFBR1/TGFBR2 protein-protein interaction in human A549 cells assessed as inhibition of TGF-beta1-induced Akt phosphorylation at 40 uM preincubated for 2 hrs followed by TGF-beta1-stimulation and measured after 4 hrs by Western blot analysis; type: cell-based; conditions: filed as antagonist, time 6.0 hrs
# [4] = Inhibition of TGFBR1/TGFBR2 protein-protein interaction in MLEC cells assessed as inhibition of TGF-beta1-induced dimer formation preincubated for 30 mins followed by TGF-beta1-stimulation and measured after overnight by pathhunter assay; type: cell-based, Neovison vison; conditions: Neogale vison
# A549 [5] = test: Inhibition of TGFBR1/TGFBR2 protein-protein interaction in human A549 cells assessed as inhibition of TGF-beta1-induced Erk1/Erk2 phosphorylation at 40 uM incubated for 6 hrs by Western blot analysis; type: cell-based; conditions: filed as antagonist
# A549 [6] = test: Inhibition of TGFBR1/TGFBR2 protein-protein interaction in human A549 cells assessed as reduction in TGF-beta1-induced MMP-2 expression preincubated for 2 hrs followed by TGF-beta1 addition and measured after 4 hrs by Western blot analysis; type: cell-based; conditions: filed as antagonist, dose 20-80 µM, time 6.0 hrs
# A549 [7] = test: Inhibition of TGFBR1/TGFBR2 protein-protein interaction in human A549 cells assessed as reduction in TGF-beta1-induced alpha-SMA expression preincubated for 2 hrs followed by TGF-beta1 addition and measured after 4 hrs by Western blot analysis; type: cell-based; conditions: filed as antagonist, dose 20-80 µM, time 6.0 hrs
# A549 [8] = test: Inhibition of TGFBR1/TGFBR2 protein-protein interaction in human A549 cells assessed as inhibition of TGF-beta1-induced Smad2/Smad3 phosphorylation at 40 uM preincubated for 2 hrs followed by TGF-beta1-stimulation and measured after 4 hrs by Western blot analysis; type: cell-based; conditions: filed as antagonist, time 6.0 hrs
# A549 [9] = test: Inhibition of TGFBR1/TGFBR2 protein-protein interaction in human A549 cells assessed as reduction in TGF-beta1-induced cell migration expression at 40 to 80 uM preincubated for 2 hrs followed by TGF-beta1 addition and measured after 24 hrs by scratch-wound healing assay; type: cell-based; conditions: filed as antagonist, dose 40-80 µM, time 26.0 hrs
# A549 [10] = test: Inhibition of TGFBR1/TGFBR2 protein-protein interaction in human A549 cells assessed as inhibition of TGF-beta1-induced Erk1/Erk2 phosphorylation at 40 uM preincubated for 2 hrs followed by TGF-beta1-stimulation and measured after 4 hrs by Western blot analysis; type: cell-based; conditions: filed as antagonist, time 6.0 hrs
# A549 [11] = test: Inhibition of TGFBR1/TGFBR2 protein-protein interaction in human A549 cells assessed as inhibition of TGF-beta1-induced Akt phosphorylation at 40 uM incubated for 6 hrs by Western blot analysis; type: cell-based; conditions: filed as antagonist
# A549 [12] = test: Inhibition of TGFBR1/TGFBR2 protein-protein interaction in human A549 cells assessed as inhibition of TGF-beta1-induced Smad2/Smad3 phosphorylation at 40 uM incubated for 6 hrs by Western blot analysis; type: cell-based
# A549 [13] = test: Inhibition of TGFBR1/TGFBR2 protein-protein interaction in human A549 cells assessed as reduction in TGF-beta1-induced fibronectin expression preincubated for 2 hrs followed by TGF-beta1 addition and measured after 4 hrs by Western blot analysis; type: cell-based; conditions: filed as antagonist, dose 20-80 µM, time 6.0 hrs
# A549 [14] = test: Inhibition of TGFBR1/TGFBR2 protein-protein interaction in human A549 cells assessed as reduction in TGF-beta1-induced cell migration expression preincubated for 2 hrs followed by TGF-beta1 addition and measured after 24 hrs by crystal violet staining based transwell assay; conditions: filed as antagonist, dose 20-80 µM, time 26.0 hrs
# A549 [15] = test: Cytotoxicity against human A549 cells assessed as reduction in cell viability at 20 to 80 uM up to 48 hrs by MTT assay; type: cell-based; conditions: a549, 48 h, dose 20-80 µM
# A549 [16] = test: Inhibition of TGFBR1/TGFBR2 protein-protein interaction in human A549 cells assessed as reduction in TGF-beta1-induced cell migration expression preincubated for 2 hrs followed by TGF-beta1 addition and measured after 48 hrs by scratch-wound healing assay; type: cell-based; conditions: filed as antagonist, dose 20-80 µM, time 50.0 hrs
compound,measurement,setting,value
COC(=O)c1ccc(NCc2c(C)c(CNc3ccc(C(=O)OC)cc3)c(C)c(CNc3ccc(C(=O)OC)cc3)c2C)cc1,IC50,[1],Not Active
same,Activity,[2],Non-Toxic
CC(=O)c1cccc(NCc2c(C)c(CNc3cccc(C(C)=O)c3)c(C)c(CNc3cccc(C(C)=O)c3)c2C)c1,IC50,[1],Not Active
same,Activity,[2],Non-Toxic
CC(=O)c1ccc(NCc2c(C)c(CNc3ccc(C(C)=O)cc3)c(C)c(CNc3ccc(C(C)=O)cc3)c2C)cc1,pIC50,[1],< 4.30
same,Activity,[2],Non-Toxic
Cc1c(CNc2cccc(C(N)=O)c2)c(C)c(CNc2cccc(C(N)=O)c2)c(C)c1CNc1cccc(C(N)=O)c1,pIC50,[1],4.50
same,Activity,[2],Non-Toxic
COC(=O)c1ccc(CNCc2c(C)c(CNCc3ccc(C(=O)OC)cc3)c(C)c(CNCc3ccc(C(=O)OC)cc3)c2C)cc1,Activity,[2],Toxic
COC(=O)c1cccc(NCc2c(C)c(CNc3cccc(C(=O)OC)c3)c(C)c(CNc3cccc(C(=O)OC)c3)c2C)c1,pIC50,[1],4.42
same,Activity,[2],Non-Toxic
Cc1c(CNc2ccccc2)c(C)c(CNc2ccccc2)c(C)c1CNc1ccccc1,pIC50,[1],5.28
same,Activity,A549 [3],Active
same,pIC50,[4],4.63
same,Activity,A549 [5],Active
same,Activity,A549 [6],Dose-dependent effect
same,Activity,A549 [7],Dose-dependent effect
same,Activity,A549 [8],Active
same,Activity,A549 [9],Active
same,Activity,A549 [10],Active
same,Activity,[2],Non-Toxic
same,Activity,A549 [11],Active
same,Activity,A549 [12],inactive
same,Activity,A549 [13],Dose-dependent effect
same,Activity,A549 [14],Dose-dependent effect
same,Activity,A549 [15],Non-Toxic
same,Activity,A549 [16],Dose-dependent effect
c1ccc(CN2COc3c(c4c(c5c3CN(Cc3ccccc3)CO5)CN(Cc3ccccc3)CO4)C2)cc1,pIC50,[1],4.74
COC(=O)c1cccc(CNCc2c(C)c(CNCc3cccc(C(=O)OC)c3)c(C)c(CNCc3cccc(C(=O)OC)c3)c2C)c1,Activity,[2],Toxic
Cc1c(CNCc2ccccc2)c(C)c(CNCc2ccccc2)c(C)c1CNCc1ccccc1,Activity,[2],Toxic
Cc1c(CNc2ccc(C(N)=O)cc2)c(C)c(CNc2ccc(C(N)=O)cc2)c(C)c1CNc1ccc(C(N)=O)cc1,IC50,[1],Not Active
same,Activity,[2],Non-Toxic
